Source: ChEMBL document CHEMBL1201862, “PubChem BioAssay data set” (2004)
Calls of active or inactive are those of the source.

How the values were obtained:
[1] = target: Cytochrome P450 2C19 (Homo sapiens, UniProt P33261); experiment: Cytochrome panel assay with activity outcomes. Panel member name: p450-cyp2c19 Compounds with AC50 equal or less than 10 uM are considered active; type: functional
[2] = Luminescence Cell-Based Dose Response HTS to Identify Inhibitors of 5'UTR Stem-Loop Driven Prion Protein mRNA Translation in H4 Neuroglioblastoma Cells. [Related pubchem assays: 1827 (Project Summary), 1813 (Primary HTS)]; type: functional
[3] = alpha-synuclein stem-loop luciferase translation blockers – H4 neuroglioma cells, luminescence, confirmation (AID 1988); type: functional, cell-based
[4] = luciferase reporter signal suppression in cells – H4 neuroglioma cells, luminescence, dose response (AID 1990); type: functional, cell-based
[5] = Luminescence Cell-Based Dose Retest to Confirm Inhibitors of Cancer Stem Cells. [Related pubchem assays (depositor defined):AID2717, AID2721]; type: functional; conditions: Homo sapiens
[6] = Luminescence Cell-Based Dose Confirmation HTS to Identify Inhibitors of Platelet Dense Granule Release. [Related pubchem assays: 1663 (Primary HTS), 1678 (Summary of Project)]; type: functional
[7] = target: Luciferin 4-monooxygenase (Photinus pyralis, UniProt P08659); experiment: inhibition of purified Photinus pyralis luciferase – biochemical, luminescence, dose response (AID 1891)
[8] = system: Streptococcus; experiment: GAS UMAA2166 growth inhibition – luminescence, BacTiterGlo, counter-screen for streptokinase expression inhibitor project, dose response (AID 1915); type: functional, organism-based;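 also: potency for reduction of bacterial viability or growth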
[9] = system: Streptococcus sp. 'group A'; experiment: Streptococcus pyogenes SK(-)GAS viability under kanamycin – luminescence, BacTiterGlo, confirmation, counter-screen for streptokinase expression inhibitor project, dose response (AID 1900); type: functional, organism-based
[10] = system: INS1; experiment: INS-1E survival protection against cytokine death – cell-based, luminescence, retest, dose response (AID 449756); type: functional; conditions: Rattus norvegicus;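 also: cell death triggered by IL-1 beta plus TNF-alpha plus IFN-gamma mixture; protective hits raise ATP signal compared with cytokine alone wells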
[11] = Trypanosoma cruzi growth suppression in host cells – NIH3T3 host cells, beta-gal luminescence, confirmation (AID 2044); type: functional, cell-based;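 also: intracellular parasites grown in NIH/3T3 mouse fibroblasts as host cells; luminescent beta-galactosidase reporter signal from transgenic T. cruzi replicating inside host cells; inhibitors lower the luminescence signal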
[12] = NIH3T3 cell viability loss – ATP luminescence, mouse fibroblasts, counter-screen, dose response (AID 2010); type: functional, cell-based;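 also: cells exposed to compound for about 90 hours before reading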
[13] = target: Cytochrome P450 2C9 (Homo sapiens, UniProt P11712)
[14] = target: Cytochrome P450 3A4 (Homo sapiens, UniProt P08684);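 also: CYP3A4 tested as one member of a cytochrome P450 panel screen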
[15] = viability of uninfected HEp-2 cells – cell-based, HTS, cytotoxicity control for RSV inhibitor project, dose response (AID 2410); type: functional; conditions: human respiratory syncytial virus
[16] = target: T1, Streptokinase A (Streptococcus pyogenes serotype M1, UniProt P10520); experiment: viability-normalized secreted streptokinase activity reduction – plasminogen activation absorbance, OD405, dose response (AID 1914); type: functional, Streptococcus pyogenes M1 GAS;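 also: secreted streptokinase activity via plasminogen activation per viability signal from cell pellet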
T1 sequence (P10520 whole entry): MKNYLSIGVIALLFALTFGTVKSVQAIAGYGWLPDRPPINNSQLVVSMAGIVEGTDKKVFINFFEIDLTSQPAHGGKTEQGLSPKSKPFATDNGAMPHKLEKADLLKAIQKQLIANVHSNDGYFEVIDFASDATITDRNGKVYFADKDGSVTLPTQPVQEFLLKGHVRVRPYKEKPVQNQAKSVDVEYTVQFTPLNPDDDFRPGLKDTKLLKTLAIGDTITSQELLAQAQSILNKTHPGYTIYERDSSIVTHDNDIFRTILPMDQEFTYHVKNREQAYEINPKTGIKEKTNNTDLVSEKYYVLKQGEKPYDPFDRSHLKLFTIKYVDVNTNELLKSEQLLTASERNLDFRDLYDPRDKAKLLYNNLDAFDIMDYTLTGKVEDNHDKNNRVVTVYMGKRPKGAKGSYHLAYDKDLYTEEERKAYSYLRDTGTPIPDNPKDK

Chain of Cytochrome P450 3A4 (P08684 whole entry): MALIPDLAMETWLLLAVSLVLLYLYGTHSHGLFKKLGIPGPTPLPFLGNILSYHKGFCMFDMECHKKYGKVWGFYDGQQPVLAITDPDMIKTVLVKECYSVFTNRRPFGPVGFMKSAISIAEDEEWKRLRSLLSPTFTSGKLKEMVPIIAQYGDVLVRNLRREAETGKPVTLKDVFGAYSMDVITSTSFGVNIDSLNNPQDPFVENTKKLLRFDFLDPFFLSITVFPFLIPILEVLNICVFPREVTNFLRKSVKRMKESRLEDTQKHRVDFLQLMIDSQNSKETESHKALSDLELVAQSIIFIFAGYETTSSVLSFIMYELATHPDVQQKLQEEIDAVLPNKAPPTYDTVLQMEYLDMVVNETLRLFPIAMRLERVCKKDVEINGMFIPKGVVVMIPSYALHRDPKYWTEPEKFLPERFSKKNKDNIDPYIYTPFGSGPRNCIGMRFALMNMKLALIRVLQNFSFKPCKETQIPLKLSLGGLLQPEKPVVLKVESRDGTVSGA
Chain of Cytochrome P450 2C9 (P11712 whole entry): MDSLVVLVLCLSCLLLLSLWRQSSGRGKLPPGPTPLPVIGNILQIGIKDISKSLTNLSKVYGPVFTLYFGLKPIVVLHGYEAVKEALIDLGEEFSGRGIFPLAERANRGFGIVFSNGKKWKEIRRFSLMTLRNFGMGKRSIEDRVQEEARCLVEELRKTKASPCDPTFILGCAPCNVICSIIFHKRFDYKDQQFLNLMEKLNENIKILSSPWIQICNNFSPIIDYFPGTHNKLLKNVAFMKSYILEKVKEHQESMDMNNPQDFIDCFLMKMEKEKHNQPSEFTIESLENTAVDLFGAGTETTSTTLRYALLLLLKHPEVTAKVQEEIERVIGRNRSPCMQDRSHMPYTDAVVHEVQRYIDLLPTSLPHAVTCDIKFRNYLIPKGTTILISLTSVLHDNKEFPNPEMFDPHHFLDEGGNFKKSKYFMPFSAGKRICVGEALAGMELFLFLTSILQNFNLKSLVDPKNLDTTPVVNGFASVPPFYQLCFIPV
Chain of Cytochrome P450 2C19 (P33261 whole entry): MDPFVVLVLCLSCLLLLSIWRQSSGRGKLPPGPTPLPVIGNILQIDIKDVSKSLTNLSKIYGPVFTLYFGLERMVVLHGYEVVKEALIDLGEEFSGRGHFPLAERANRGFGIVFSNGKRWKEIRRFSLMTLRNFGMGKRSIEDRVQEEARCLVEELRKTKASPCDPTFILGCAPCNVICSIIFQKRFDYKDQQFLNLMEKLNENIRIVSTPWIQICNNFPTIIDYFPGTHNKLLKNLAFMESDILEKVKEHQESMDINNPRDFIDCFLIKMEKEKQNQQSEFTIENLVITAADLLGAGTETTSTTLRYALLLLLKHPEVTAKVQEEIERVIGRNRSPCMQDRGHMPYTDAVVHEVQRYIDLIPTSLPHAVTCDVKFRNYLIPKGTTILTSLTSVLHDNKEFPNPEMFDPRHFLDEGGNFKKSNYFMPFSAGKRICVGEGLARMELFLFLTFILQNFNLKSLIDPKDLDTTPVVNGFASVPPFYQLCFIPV
Chain of Luciferin 4-monooxygenase (P08659 whole entry): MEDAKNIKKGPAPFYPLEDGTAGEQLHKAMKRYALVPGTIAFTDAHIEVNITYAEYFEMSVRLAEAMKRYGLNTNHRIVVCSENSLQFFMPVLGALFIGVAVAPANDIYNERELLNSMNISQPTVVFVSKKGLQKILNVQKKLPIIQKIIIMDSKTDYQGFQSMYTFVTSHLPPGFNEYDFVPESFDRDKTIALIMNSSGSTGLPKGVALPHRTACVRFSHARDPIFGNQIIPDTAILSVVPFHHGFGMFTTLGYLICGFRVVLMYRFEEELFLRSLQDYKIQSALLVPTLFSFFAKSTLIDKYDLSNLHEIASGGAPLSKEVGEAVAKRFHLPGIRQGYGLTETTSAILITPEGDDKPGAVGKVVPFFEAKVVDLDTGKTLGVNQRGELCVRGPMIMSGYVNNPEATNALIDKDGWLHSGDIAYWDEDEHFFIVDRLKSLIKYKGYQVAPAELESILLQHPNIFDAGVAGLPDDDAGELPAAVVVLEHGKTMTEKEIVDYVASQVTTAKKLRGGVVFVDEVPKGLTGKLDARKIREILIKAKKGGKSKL

With `Cc1cc(-c2c(C)[nH]n(-c3ccccc3)c2=O)n(-c2ccccc2)n1` the AC50 ([1]; read-out: AC50) was 20 µM (inconclusive).
In the case of `CCOC(=O)c1ccc(NC2c3ccccc3C(=O)N2c2cccnc2)cc1` (stereo not drawn), the EC50 [2] was > 120 µM (not active), the EC50 [3] was 9.83 µM (active) and the EC50 [4] was 20 µM (active).
For `Brc1cccc(OCCN2CCc3ccccc3C2)c1`, the AC50 [5] was 24.9 µM (active).
For `CCCc1cc(C(=O)N2CCCC(N3CCN(c4ccccc4F)CC3)C2)n(C)n1` (stereo not drawn), the EC50 [6] was 21.6 µM (active) and the EC50 [7] was > 112 µM (not active).
With `O=[N+]([O-])c1ccc(O)c(-c2nc(-c3ccccc3)c(-c3cccs3)[nH]2)c1` the AC50 [5] was 0.662 µM (active), the EC50 [8] was 2.38 µM (active) and the EC50 [9] was 1.23 µM (active). The EC50 [2] was > 120 µM (not active), the EC50 [3] was > 120 µM (not active) and the EC50 [4] was 18.2 µM (active).
With `Cn1cc(S(=O)(=O)N2CCCC2)cc1C(=O)NCCc1ccccc1` the EC50 [6] was > 112 µM (not active) and the EC50 [7] was > 112 µM (not active).
In the case of `C/C(=N\NC(=O)COc1ccccc1-c1ccccc1)c1ccc(O)cc1O`, the AC50 [10] was 2.48 µM (active), the EC50 [8] was 5.4 µM (active) and the EC50 [9] was 3.01 µM (active). For the same compound, the EC50 [11] was 1.24 µM (active), the EC50 [2] was 9.87 µM (active) and the EC50 [3] was 9.9 µM (active). For the same compound, the EC50 [4] was 11.1 µM (active) and the EC50 [12] was 4.94 µM (active).
In the case of `O=c1cc(O)cc(/C=C\c2ccc(O)c(O)c2)o1`, the AC50 [13] was 25.1 µM (inconclusive) and the AC50 [14] was 3.16 µM (inconclusive).
In the case of `O=[N+]([O-])c1ccc(S(=O)(=O)Nc2cccc(-c3ccc(N4CCCC4)nn3)c2)cc1`, the CC50 [15] was 24.5 µM (active).
In the case of `COc1ccc(C(=O)NCCOc2cccc(OC)c2)cc1`, the EC50 [6] was > 112 µM (not active) and the EC50 [7] was > 112 µM (not active).
For `O=C(N/N=C/c1ccc[nH]1)c1sc2ccccc2c1Cl`, the AC50 [5] was 1.94 µM (active), the EC50 [11] was 2.3 µM (active) and the EC50 [12] was > 30 µM (not active).
For `O=C(COc1cccc(OC(F)F)c1)Nc1ccc(SC(F)F)cc1`, the EC50 [6] was > 112 µM (not active) and the EC50 [7] was > 112 µM (not active).
For `C/C(=N\NC(=O)C1CC1)c1ccc(C(C)(C)C)cc1`, the CC50 [15] was 34.3 µM (active).
With `CCCc1cc(=O)oc2c(CN3CCOCC3)c(O)ccc12` the AC50 ([1]; read-out: AC50) was 25.1 µM (inconclusive).
For `CCOc1ccc(S(=O)(=O)N2CCC(C(=O)NCc3cccnc3)CC2)cc1Cl`, the EC50 [2] was > 120 µM (not active), the EC50 [3] was > 120 µM (not active) and the EC50 [4] was 17.7 µM (active).
For `O=C(Nc1ccccc1N1CCCC1)C1CCN(S(=O)(=O)c2ccccc2C(F)(F)F)CC1`, the CC50 [15] was > 50 µM (active).
With `COc1ccc(CCN2CC34C=CC(O3)C(C(=O)NCc3ccccc3)C4C2=O)cc1OC` (stereo not drawn) the AC50 ([1]; read-out: AC50) was 14.1 µM (inconclusive).
In the case of `COc1ccc2cc1Oc1ccc(cc1)CC1c3c(cc(OC)c4c3Oc3cc5c(cc3O4)CCNC5C2)CCN1C` (stereo not drawn), the EC50 [11] was 0.193 µM (active), the EC50 [2] was 8.28 µM (active) and the EC50 [3] was 8.03 µM (active). The EC50 [4] was > 120 µM (not active) and the EC50 [12] was 6.68 µM (active).
With `COc1ccc(OCCCC(=O)OC(C)C(=O)Nc2ccc(NC(C)=O)cc2)cc1` (stereo not drawn) the EC50 [6] was > 112 µM (not active) and the EC50 [7] was > 112 µM (not active).
In the case of `Cc1cc(NC(=O)COC(=O)c2ccc(NS(=O)(=O)c3ccc(C)c(C)c3)cc2)no1`, the AC50 ([1]; read-out: AC50) was 14.1 µM (inconclusive).
With `COc1ccc(C(=O)OCCOc2cccc(Cl)c2)cc1S(=O)(=O)N1CCOCC1` the EC50 [6] was > 112 µM (not active) and the EC50 [7] was > 112 µM (not active).
With `CN1CCc2[nH]nc(-c3n[nH]c4c3CN(C)CC4)c2C1` the AC50 [1] was “inconclusive”.
With `Cc1nc2ccccc2c(=O)n1NC(=O)C1CCC(C(C)(C)C)CC1` (stereo not drawn) the EC50 [2] was > 120 µM (not active), the EC50 [3] was > 120 µM (not active) and the EC50 [4] was > 120 µM (not active).
With `COc1cccc(Nc2ncc3ncc(=O)n(C)c3n2)c1` the AC50 [1] was “inconclusive” and the AC50 [14] was 12.6 µM (inconclusive).
In the case of `Clc1ccccc1Cn1c(/C=C/c2ccco2)nc2ccccc21`, the AC50 [5] was 2.86 µM (active).
In the case of `C[N+](C)(C)c1nc(N)nc2c1ncn2[C@H]1O[C@@H](CO)[C@@H](O)[C@H]1O`, the AC50 [1] was “inconclusive”.
For `CC1=C(C(=O)OC2CCCCC2)C(c2ccc(C)o2)C2=C(O)CC(C)(C)CC2=N1` (stereo not drawn), the AC50 [5] was 1.38 µM (active).
For `CCOC(=O)Cn1c(=O)oc2cc(S(=O)(=O)NCCc3ccc(OCC)c(OCC)c3)ccc21`, the AC50 [13] was 0.00562 µM (inconclusive).
With `CCC/C(=C1/c2ccccc2C(=O)N1c1ccccc1)c1ccc2c(c1)OCCO2` the AC50 [5] was 3.85 µM (active).
With `COc1ccc(OC)c(-n2c(SCC(N)=O)nnc2-c2c[nH]c3ccccc23)c1` the EC50 [6] was > 112 µM (not active) and the EC50 [7] was > 112 µM (not active).
For `COc1ccc(/C=N\NC(=O)c2ccc(F)cc2)cc1COc1ccccc1C(N)=O`, the EC50 [6] was > 112 µM (not active) and the EC50 [7] was > 112 µM (not active).
With `CCOC(=O)C(=O)NNc1ccc(Cl)cc1` the AC50 [5] was 0.79 µM (active).
With `CC(/C=N/NC(=O)c1nnn(-c2nonc2N)c1C(C)C)=C\c1ccccc1` the CC50 [15] was 39.5 µM (active).
In the case of `CCc1ccc(-c2cc(C(=O)N/N=C/c3c[nH]c4ccccc34)[nH]n2)cc1`, the AC50 [5] was 2.97 µM (active), the EC50 [8] was 6.73 µM (active) and the EC50 [9] was 7.37 µM (active). For the same compound, the EC50 [16] was > 150 µM (not active).
With `COc1cc(C)ccc1OCCCOc1ccccc1Cl` the AC50 [13] was 12.6 µM (inconclusive) and the AC50 [14] was 17.8 µM (inconclusive).
For `COc1ccc(NS(=O)(=O)c2cc(NC(=O)c3ccc(O)nc3)ccc2N2CCCC2)cc1`, the AC50 [5] was 0.952 µM (active).
In the case of `COc1ccc(C(=O)C2CCCN(Cc3cc(C)c(O)c(C)c3)C2)c(OC)c1` (stereo not drawn), the AC50 [5] was 0.502 µM (active).
For `COCCn1c(=O)c(C)nc2cnc(Nc3cccc(OC)c3)nc21`, the AC50 [13] was 39.8 µM (inconclusive).
For `FC(F)(F)c1ccccc1-c1nc(NC2CCNCC2)c2ccccc2n1`, the AC50 [1] was “inconclusive”.
With `CCc1ccc(C(=O)Nc2cccc(-c3nn[nH]n3)c2)s1` the EC50 [6] was > 112 µM (not active) and the EC50 [7] was 3.49 µM (active).
In the case of `COC(=O)c1[nH]c2cc(OC)ccc2c1NC(=O)CN1CCOCC1`, the EC50 [6] was > 112 µM (not active) and the EC50 [7] was > 112 µM (not active).
In the case of `Cc1cc(=O)n2nc(N3CCCC(C(=O)NCc4ccccc4)C3)sc2n1` (stereo not drawn), the EC50 [6] was > 112 µM (not active) and the EC50 [7] was > 112 µM (not active).
In the case of `COc1cc2c(cc1OC)C(C(=O)Nc1ccc3c(c1)OCCO3)C(c1cccnc1)N(C)C2=O` (stereo not drawn), the AC50 [13] was 11.2 µM (inconclusive).
In the case of `CCC(C)Nc1nc(N)c([N+](=O)[O-])c(Nc2ccccc2OC)n1` (stereo not drawn), the EC50 [2] was > 120 µM (not active), the EC50 [3] was > 120 µM (not active) and the EC50 [4] was 13.5 µM (active).
In the case of `O=P(O)(O)CCP(=O)(c1ccccc1)c1ccccc1`, the AC50 [1] was “inconclusive”.
In the case of `Cc1noc(C)c1CSc1nc2ccccc2nc1NS(=O)(=O)c1ccc(Cl)cc1`, the AC50 [5] was 3.64 µM (active), the EC50 [8] was 13.7 µM (active) and the EC50 [9] was 6.49 µM (active). For the same compound, the EC50 [16] was 5.51 µM (active).
For `O=C(CN1CCN(c2cccc(C(F)(F)F)c2)CC1)Nc1cccc(C(F)(F)F)c1`, the CC50 [15] was > 50 µM (active).
In the case of `CCOC(=O)C1CCN(C(=O)c2oc3ccc(S(=O)(=O)N4CCCCCC4)cc3c2C)CC1`, the CC50 [15] was 17.7 µM (active).
In the case of `CCC(C)(C)c1ccc(Oc2cccc(C(=O)O)c2)cc1`, the AC50 [13] was 5.01 µM (inconclusive).
For `COC(=O)C(NS(=O)(=O)c1ccc(NC(C)=O)cc1)C(C)C` (stereo not drawn), the AC50 [13] was 1.58 µM (inconclusive).
For `Cc1ccc(S(=O)(=O)NCc2ccc(C(=O)NC3CC3)cc2)cc1`, the EC50 [6] was 28.1 µM (active) and the EC50 [7] was > 112 µM (not active).
